Laboratory results as given in patent US9556437B2, “FAT1 gene in cancer and inflammation” (DEPARTMENT OF BIOTECHNOLOGY (DBT), priority 2012, dated 2017).
“Also recorded” adds a separate entry of the source.

Tests used:
Assay type in all cases: cell-based, human
VEGF-C = VEGF-C mRNA expression by q-PCR; details: U87MGsiFAT1 cells
Procedure: (§1) Cell Culture and siRNA Transfection: The human glioma cell lines U87MG, U373, A172, T98G, GOS3 and SW1088 were obtained from ATCC; Rockville, Md., cultured in DMEM (Sigma-Aldrich, Switzerland) supplemented with 10% (v/v) FCS (Sigma-Aldrich), 3.7 g/l sodium bicarbonate (Sigma-Aldrich), Ciprofloxacin 10 μg/ml and 5% CO2 at 37° C. For transfection, 2×10^5 cells were seeded per 25 cm^2 flask. After 24 hrs, cells were transfected with FAT1 siRNA and universal medium GC control siRNA (Invitrogen) according to the manufacturer's protocol with a final concentration of 20 nM of siRNA using LIPOFECTAMINE 2000 (Invitrogen) and Opti-Mem media (Invitrogen). After 4 hrs of siRNA transfection, the media was supplemented with DMEM containing 2×FCS. The ability of each siRNA to mediate knockdown of FAT1 mRNA was confirmed using qRT-PCR. Photomicrographs of the cells were taken using an inverted phase contrast microscope (Nikon TMS, Phase contrast microscope, Japan). For simultaneous knockdown of FAT1 and PDCD4, siRNA from Dharmacon were used. Transfection was performed as earlier with 50 nM of FAT1 siRNA along with 50 nM of PDCD4 siRNA or 50 nM of control siRNA.
(§2) cDNA Synthesis and Quantitative PCR: Total RNA was isolated from cells at appropriate time point (vide supra) using TRIzol reagent (Invitrogen), quantified using a Nanodrop ND-1000 spectrophotometer. […]

PGE2 = PGE2 ELISA of conditioned medium; details: U87MGsiFAT1 vs siControl, 72 hrs, p<0.01
Procedure: PGE2 ELISA: U87MG cells (2.5×10^5 cells/flask) were plated into 25 cm^2 flask. Transfection was performed on day 1 and 72 hrs later, the conditioned medium was collected and concentrated using Centricon YM-30. The concentration of PGE2 secreted into the medium was measured with an EIA kit for human PGE2 (Cayman Chemical, Michigan, USA).

c-jun = assay: Western blot total c-jun; details: U87MGsiFAT1 vs siControl
Procedure: Western Blotting Analyses: Cells were lysed in triple detergent buffer containing protease and phosphatase inhibitors (Sigma Aldrich), lysates were quantified by BCA kit (Pierce, Thermo Fisher Scientific, Rockford, Ill. USA) and electrophoresed in 10% SDS-PAGE and electroblotted on nitrocellulose membrane (Millipore, Billerica, Mass., USA). Membrane was blocked with 5% bovine serum albumin (BSA) in 1×TBS at 4° C. for overnight. Primary and secondary antibody was diluted in 5% BSA and 0.1% tween-20 in 1×TBS. Blot was incubated in primary antibody overnight at 4° C. followed by secondary antibody incubation for 2 hrs at room temperature. Blot was developed by BCIP-NBT (Promega, Madison, Wis., USA) and captured using Alpha Imager EP software.

U87MG and A172 cells = assay: Cell morphology, phase contrast microscopy; details: U87MGsiFAT1 and A172siFAT1 vs siControl, 72 hrs post transfection
Procedure: as §1

MMP3 = MMP3 mRNA expression by q-PCR; details: U87MGsiFAT1 cells
Procedure: as §1, §2

[1] = tested on: AP-1 transcriptional activity; assay: AP-1 luciferase assay; details: U87MGsiFAT1 vs U87siControl, p<0.01
Procedure: AP-1 and COX-2 Promoter Luciferase Assay: U87MG cells (40000 cells/well) were plated in 6-well plates in triplicate on day zero. On day 1, cells were transfected with siFAT1 and siControl. On day 2 cells were transiently transfected with 4×AP-1-luciferase reporter plasmids as described previously. Cells were transfected with 1 μg of AP-17× luciferase reporter plasmid, along with 50 ng of pRL-TK (Renilla luciferase) control plasmid using LIPOFECTAMINE2000 as the transfection reagent. After 48 hrs, the cells were lysed by 1× passive-lysis-buffer (Promega, Madison, Wis., USA) and assayed for luciferase activity as previously described. For COX-2 luciferase assay U87MG cells were transfected with siFAT1 and siControl on day 1 and after 4 hrs incubation were treated with 10 μM SR11302. On day2 cells were transiently transfected with COX-2 reporter plasmid and again treated with 10 μM SR11302. After 48 hrs, the cells were assayed for luciferase activity.

U87MG cells = assay: Cell cycle analysis by flow cytometry (PI staining); details: FACS, 72 hrs after transfection, vs siControl
Procedure: On day 1, siRNA transfection was carried out. 1 ml of OPTIMEM, 50 picomoles of siRNA (siControl and siFAT1) and 3 μl of LIPOFECTAMINE 2000 was used per well. Cells were then analyzed by flow-cytometery after 72 hrs of transfection to assess the cell cycle distribution of individual cells. Cells were fixed in 70% ethanol overnight at −20′C followed by propidium iodide (PI) staining. Florescence was measured on FACS (florescence activated cell sorter, BD Biosciences, Bedford, Mass.). […] On day 1, transfection was carried out. 50 μl of OPTIMEM, 2 picomoles of siRNA (control and FAT1 siRNA) and 0.5 μl of LIPOFECTAMINE 2000 was used per well. After 4 hrs incubation at 37° C., 50 μl 2× media was added per well. After every time point (24, 48, 72 and 96 hrs of transfection), media was removed from wells and 100 μl of MTT (0.2 mg/ml) was added per well and incubated for 2-4 hrs. The formazan crystals formed were dissolved by addition of 100 μl of DMSO and absorbance was measured at 570 nm.

siFAT1: FAT1 specific siRNA (Invitrogen), FAT Stealth RNAi siRNA-I (HSS103567), used for further experiments (sense CCCAACACACCUGUGGUCAUGGUAA; antisense UUACCAUGACCACAGGUGUGUUGGG; Stealth modification, chemistry not fully specified; listed as Homo sapiens)
decrease in VEGF-C mRNA expression (VEGF-C): more than 10 fold
reduction of PGE2 secreted into the medium (PGE2): > 2 fold
total c-jun protein level (c-jun): reduction
cell morphology (U87MG and A172 cells): significant morphological alterations; also recorded: Distinct phenotypic changes
decrease in MMP3 mRNA expression (MMP3): more than 10 fold
reduction in AP-1 luciferase activity [1]: 2 fold
distribution of cell population in different phases of cell cycle (U87MG cells): no variation; also recorded: No difference
